17 compounds from ChEMBL document CHEMBL5385851, “Natural quinazolinones: From a treasure house to promising anticancer leads” (Eur J Med Chem, 2023) can be followed below.

Molecules are shown by their SMILES. In brackets after ≈: the same amount, converted by molar mass.

Test [1] relates to Hs 683. Description: Cytotoxicity against human Hs 683 cells assessed as reduction in cell viability by MTT assay. It is filed as functional, cell-based.
Test [2] can be described thus: Antiproliferative activity against human U373 cells assessed as reduction in cell viability. It is filed as functional, cell-based. The following applies: U373 MG.
In test [3] the test system is A549. In words: Cytotoxicity against human A549 cells assessed as inhibition of cell growth measured after 72 hrs by MTT assay. It is filed as functional, cell-based. The conditions noted are these: A549, 72 h.
Test [4] has as its system MCF7. Description: Cytotoxicity against human MCF7 assessed as reduction in cell viability incubated for 24 hrs by MTT assay. The following applies: MCF7, 24 h. It is filed as functional, cell-based.
For test [5], the system named is SK-MEL-28. Description: Cytotoxicity against human SK-MEL-28 cells assessed as reduction in cell growth. It counts as functional, cell-based.
In test [6] the test system is A549. In words: Cytotoxicity against human A549 cells assessed as reduction in cell viability incubated for 24 hrs by MTT based colorimetric assay. It counts as functional. The conditions noted are these: A549, 24 h.
The test system of test [7] is HCT-116. Description: Cytotoxicity against human HCT-116 cells assessed as reduction in cell growth by MTT based colorimetric assay. It counts as functional.
Test [8] relates to HepG2. In words: Cytotoxicity against human HepG2 cells assessed as reduction in cell growth by MTT based colorimetric assay. It counts as functional.
In test [9] the test system is A-375. In words: Cytotoxicity against human A-375 cells assessed as reduction in cell growth by MTT based colorimetric assay. It counts as functional.
Test [10] has as its system MCF7. Description: Cytotoxicity against human MCF7 cells assessed as reduction in cell viability by MTS assay. It counts as functional, cell-based.
For a further test, the system named is NCI-H460. In words: Cytotoxicity against human NCI-H460 cells assessed as reduction in cell viability by MTS assay. It is filed as functional, cell-based.
Another test relates to SF-268. In words: Cytotoxicity against human SF-268 cells assessed as reduction in cell viability by MTS assay. It counts as functional, cell-based.
Another test deals with P388. Description: Cytotoxicity against mouse P388 cells assessed as reduction in cell growth. It counts as functional. The conditions noted are these: read-out: ED50 (the source's name).
The next test has as its system PC-3. In words: Cytotoxicity against human PC-3 cells assessed as inhibition of cell growth. It is filed as functional, cell-based.
A further test deals with KB. Description: Cytotoxicity against human KB cells assessed as cell growth inhibition. It is filed as functional, cell-based.
Test [11] addresses Tryptophan 2,3-dioxygenase (Homo sapiens, UniProt P48775). Description: Inhibition of TDO (unknown origin) expressed in HEK293 cells. It counts as cell-based.
Test [12] has as its target Indoleamine 2,3-dioxygenase 1 (Homo sapiens, UniProt P14902). In words: Inhibition of IDO1 in human HeLa cells. It counts as cell-based.
The test system of test [13] is A549. In words: Antiproliferative activity against human A549 cells assessed as reduction in cell viability incubated for 48 hrs by MTT assay. It is filed as functional, cell-based. The following applies: A549, 48 h.
Test [14] concerns HepG2. In words: Antiproliferative activity against human HepG2 cells assessed as reduction in cell viability incubated for 72 hrs by CCK-8 assay. It is filed as functional, cell-based. The conditions noted are these: HepG2, 72 h.
Test [15] is described as follows: Antiproliferative activity against human U373 cells assessed as inhibition of cell growth measured after 72 hrs by CTG assay. It counts as functional, cell-based. The conditions noted are these: U373 MG.
Test [16] has as its system A549. In words: Antiproliferative activity against human A549 cells assessed as cell growth inhibition. It counts as functional, cell-based.
Test [17] deals with MCF7. Description: Antiproliferative activity against human MCF7 cells assessed as reduction in cell viability incubated for 48 hrs by MTT assay. It is filed as functional, cell-based. The following applies: MCF7, 48 h.
For test [18], the system named is SK-MEL-28. Description: Cytotoxicity against human SK-MEL-28 cells assessed as inhibition of cell growth incubated for 72 hrs by MTT assay. The conditions noted are these: SK-MEL-28, 72 h. It is filed as functional, cell-based.
Test [19] relates to A549. In words: Antiproliferative activity against human A549 cells assessed as cell growth inhibition measured after 72 hrs by MTT assay. The conditions noted are these: A549, 72 h. It counts as functional, cell-based.
Test [20] concerns HCT-116. Description: Cytotoxicity against human HCT-116 cells assessed as reduction in cell growth incubated for 48 hrs by MTT assay. The conditions noted are these: HCT-116, 48 h. It is filed as functional, cell-based.
Test [21] concerns HepG2. Description: Cytotoxicity against human HepG2 cells assessed as cell growth inhibition measured after 48 hrs by MTT assay. It is filed as functional, cell-based. The following applies: HepG2, 48 h.
Test [22] deals with A-375. Description: Cytotoxicity against human A-375 cells assessed as reduction in cell growth incubated for 48 hrs by MTT assay. The following applies: A-375, 48 h. It counts as functional, cell-based.
Test [23] deals with Hs 683. Description: Cytotoxicity against human Hs 683 cells. It is filed as functional, cell-based.
Test [24] is described as follows: Cytotoxicity against human U373 cells assessed as reduction in cell viability after 24 hrs by MTT assay. The conditions noted are these: U373 MG. It is filed as functional, cell-based.
Test [25] concerns A549. In words: Cytotoxicity against human A549 cells assessed as reduction in cell growth incubated for 5 days by MTT assay. It counts as functional, cell-based. The conditions noted are these: A549, 120 h.
Test [26] relates to MCF7. In words: Cytotoxicity against human MCF7 cells assessed as reduction in cell viability by SRB assay. It is filed as functional, cell-based.
Test [27] deals with SK-MEL-28. In words: Cytotoxicity against human SK-MEL-28 cells assessed as reduction in cell viability measured after 24 hrs by MTT assay. It is filed as functional, cell-based. The following applies: SK-MEL-28, 24 h.
Test [28] relates to A549. In words: Cytotoxicity against human A549 cells assessed as reduction in cell growth. It counts as functional, cell-based.
The test system of test [29] is HCT-116. Description: Cytotoxicity against human HCT-116 cells assessed as cell growth inhibition incubated for 24 hrs by MTT based colorimetric assay. It is filed as functional. The conditions noted are these: HCT-116, 24 h.
In test [30] the test system is HepG2. Description: Cytotoxicity against human HepG2 cells assessed as reduction in cell viability incubated for 24 hrs by MTT based colorimetric assay. It is filed as functional. The following applies: HepG2, 24 h.

Tryptophan 2,3-dioxygenase, sequence (P48775 whole entry): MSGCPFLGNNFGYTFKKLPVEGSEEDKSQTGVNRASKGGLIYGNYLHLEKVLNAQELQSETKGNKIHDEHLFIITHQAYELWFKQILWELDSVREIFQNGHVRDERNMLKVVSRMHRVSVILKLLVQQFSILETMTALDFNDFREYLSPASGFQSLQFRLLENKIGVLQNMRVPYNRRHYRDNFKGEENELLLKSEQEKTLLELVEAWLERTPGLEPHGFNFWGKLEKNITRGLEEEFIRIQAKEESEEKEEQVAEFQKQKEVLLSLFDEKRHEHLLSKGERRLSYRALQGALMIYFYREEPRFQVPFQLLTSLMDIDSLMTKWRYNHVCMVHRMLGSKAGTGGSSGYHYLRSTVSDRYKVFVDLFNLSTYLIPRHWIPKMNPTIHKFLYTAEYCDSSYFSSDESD
Indoleamine 2,3-dioxygenase 1, sequence (P14902 whole entry): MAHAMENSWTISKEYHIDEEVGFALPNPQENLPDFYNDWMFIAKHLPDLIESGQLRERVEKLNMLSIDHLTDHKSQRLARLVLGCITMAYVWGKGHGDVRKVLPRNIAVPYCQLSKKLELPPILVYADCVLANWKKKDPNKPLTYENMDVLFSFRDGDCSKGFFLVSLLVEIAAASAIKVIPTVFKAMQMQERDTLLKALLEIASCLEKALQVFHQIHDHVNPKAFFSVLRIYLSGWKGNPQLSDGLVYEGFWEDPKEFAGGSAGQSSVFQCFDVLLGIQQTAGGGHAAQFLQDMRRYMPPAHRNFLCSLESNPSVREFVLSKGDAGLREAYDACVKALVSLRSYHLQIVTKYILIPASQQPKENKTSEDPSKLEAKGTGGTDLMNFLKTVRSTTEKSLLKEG

On to `O=C1N[C@H]2c3[nH]c4ccccc4c3C[C@@H]1n1c2nc2ccccc2c1=O`, for which the IC50 came to 50 µM in the test on Hs 683 [1]; 50 µM in test [2]; 39 µM in the test with A549 [3]; 43 µM with MCF7 [4]; 73 µM in the test on SK-MEL-28 [5].

Turning to `CC(C)C[C@H]1NC(=O)[C@@H](C[C@]2(O)c3ccccc3N3C(=O)[C@@H](C)N[C@H]32)n2c1nc1ccccc1c2=O`, the half-maximal inhibitory concentration (IC50) with A549 [6] worked out at 0.54 µM; with HCT-116 [7], 203 µM; with HepG2 [8] it was 76 µM; with A-375 [9], 160 µM.

Consider `COC(=O)c1c2ccccc2n2c(=O)c3ccccc3[nH]c12` [PHAITANTHRIN E], for which the IC50 in the test with MCF7 [10], in the test on NCI-H460 and in the test with SF-268 was above 50 µM throughout.

Regarding `CO[C@@]1(C)NC(=O)[C@@H](C[C@]2(O)c3ccccc3N3C(=O)[C@H](C)N[C@@H]32)n2c1nc1ccccc1c2=O`, the EC50 in the test with P388 is 13.8 µg/mL (≈ 29 µM).

As to `O=C1c2c(O)cccc2-n2c1nc1ccccc1c2=O` [PHAITANTHRIN C], the IC50 in the test on MCF7 [10], in the test with NCI-H460 and in the test on SF-268 was above 50 µM each time.

In the case of `COc1ccc2c(=O)n3ccc4c5ccccc5[nH]c4c3nc2c1`, the IC50 in the test on PC-3 stood at 22.1 µM.

On to `C=CC(C)(C)[C@@]12C[C@H]3c4nc5ccccc5c(=O)n4[C@H](C)C(=O)N3[C@@H]1N(C(C)=O)c1ccccc12`, for which the IC50 with KB is 107 µM.

With `O=C1/C(=c2\c3ccccc3n3c(=O)c4ccccc4nc23)Nc2ccccc21` [CANDIDINE], the IC50 in the test with MCF7 [10], in the test with NCI-H460 and in the test with SF-268 was above 50 µM each time.

As to `C[C@@H]1NC(=O)[C@@H](Cc2c[nH]c3ccccc23)n2c1nc1ccccc1c2=O` [FUMIQUINAZOLINE F], the EC50 with P388 worked out at 14.6 µg/mL (≈ 40.7 µM).

Turning to `CN(C)CCc1ccc2nc3n(c(=O)c2c1)C1C=CC(F)=CC1C3=O` (stereo not given), the IC50 in test [11] came out at 0.06 µM; in test [12], 0.02 µM.

Regarding `C[C@H]1C(=O)N2c3ccccc3[C@@]3(C[C@@H](n4cnc5ccccc5c4=O)C(=O)O3)[C@@H]2N1O`, the IC50 with A549 [13] is 0.54 µM; with HepG2 [14], 235 µM; in [15], above 100 µM; in the test with A549 [16], above 100 µM; in the test with MCF7 [17], above 100 µM; in the test with SK-MEL-28 [18] it was above 100 µM.

Consider `C[C@@H]1N[C@H]2N(C1=O)c1ccccc1[C@@]2(O)C[C@@H]1C(=O)N[C@@H](C)c2nc3ccccc3c(=O)n21` [FUMIQUINAZOLINE A], for which the EC50 in the test with P388 was 6.1 µg/mL (≈ 13.7 µM).

Take `CC(C)[C@@H]1NC(=O)[C@@H](C[C@]2(O)c3ccccc3N3C(=O)[C@H](C)N[C@H]32)n2c1nc1ccccc1c2=O`: the IC50 worked out at 0.54 µM in the test with A549 [19], 123 µM in the test on HCT-116 [20], 53 µM with HepG2 [21] and 169 µM in the test on A-375 [22].

`C[C@@H]1N[C@H]2N(C1=O)c1ccccc1[C@@]2(O)C[C@@H]1C(=O)N[C@H](C)c2nc3ccccc3c(=O)n21`: the EC50 in the test with P388 was 16 µg/mL (≈ 35.9 µM).

Regarding `C[C@H]1NC(=O)[C@@H](Cc2c[nH]c3ccccc23)n2c1nc1ccccc1c2=O` [FUMIQUINAZOLINE G], the EC50 in the test with P388 was 17.7 µg/mL (≈ 49.4 µM).

For `CC1(C)C(=O)N2c3ccccc3[C@@]3(C[C@@H](n4cnc5ccccc5c4=O)C(=O)O3)[C@@H]2N1C=O`, the IC50 in the test on HepG2 [14] is 235 µM; in [15] it was above 100 µM; in the test with A549 [16], above 100 µM; in the test with MCF7 [17], 91 µM; in the test on SK-MEL-28 [18], above 100 µM.

For `CC(C)[C@H]1NC(=O)[C@@H](C[C@]2(O)c3ccccc3N3C(=O)[C@H](C)N[C@H]32)n2c1nc1ccccc1c2=O`, the IC50 with Hs 683 [23] was above 100 µM; in [24], above 100 µM; in the test on A549 [25], above 100 µM; with MCF7 [26], above 100 µM; in the test on SK-MEL-28 [27] it was above 100 µM; in the test with A549 [28], 0.54 µM. Moreover, the IC50 in the test on HCT-116 [29] turned out to be 277 µM; in the test with HepG2 [30], 115 µM.
